Test results taken from patent US20080063703A1, “Active Drug Delivery in the Gastrointestinal Tract” (priority 2004, published 2008).
Where two headings read alike, the source gives them in different places.

How the values were obtained:
[1] = test system: proabsorptive effect of NO; settings: addition of NOS inhibitors; cited from earlier work
rat jejunum = assay: In vitro macromolecule permeation of rat jejunum sections with/without electrical stimulation and L-NAME (FIG. 37); assay type: in vitro ADME
Experimental: Reference is now made to FIG. 37, which is a graph showing in vitro measurements of macromolecule permeation, measured in accordance with an embodiment of the present invention. Several sections of rat jejunum were prepared, and the permeation of the sections to Leuprolide and Octreotide peptides was measured with and without electrical stimulation, and with and without application of 1 mM N^G-Nitro-L-Arginine methyl ester (L-NAME), a non-specific nitric oxide (NO) synthase (NOS) inhibitor. The electrical stimulation included the following parameters: 18 Hz, 1 ms pulses, and 5 mA (corresponding to a voltage of about 2 V).

distal ileum tissue = assay: Octreotide permeation via distal ileum tissue in diffusion chamber 500 with LITV pulses (FIG. 36); assay type: in vitro ADME, Wistar rat; settings: 18 Hz, 3 mA, 1 millisecond vs control, at 7 minutes (FIG. 36)
Experimental: (§1) Reference is now made to FIG. 26, which is a schematic cross-sectional illustration of an experimental diffusion chamber 500, and FIGS. 27-36, which are graphs showing in vitro experimental results generated in accordance with respective embodiments of the present invention. A number of 300 g Wistar rats were anaesthetized using Ketamine (100 mg/kg) and Xylazine (10 mg/kg). Two 3 cm-long sections 510 of the intestine were removed from each rat and opened along the mesenterial line so that two rectangular pieces of tissue were available from each rat (a single tissue section 510 is shown in FIG. 26). For the experiments described hereinbelow with reference to FIGS. 27-35, the intestinal sections were taken from the upper jejunum, while for the experiment described hereinbelow with reference to FIG. 36, the intestinal sections were taken from the upper jejunum, proximal ileum, and distal ileum. The serosal and muscular layers of the intestinal sections were removed using a microscope cover glass. […]
(§2) In each of the experiments described hereinbelow with reference to FIGS. 27-36, beginning upon replacement of the HBSS in donor cell 520 with octreotide, a train of LITV pulses was applied through electrodes 530, and the permeation of octreotide from donor cell 520 to acceptor cell 522 via tissue segment 510 was measured. […]

jejunal tissue = assay: Octreotide permeation via jejunal tissue in diffusion chamber 500 with LITV pulses (FIGS. 27-36); assay type: in vitro ADME, Wistar rat; settings: for permeation efficiency, effect of pulse cycle: 1 millisecond (FIG. 31); for octreotide permeation vs control group: 3 mA (FIG. 29); for permeation efficiency, effect of electrode material: 1 millisecond (FIG. 34)
Experimental: Reference is now made to FIG. 26, which is a schematic cross-sectional illustration of an experimental diffusion chamber 500, and FIGS. 27-36, which are graphs showing in vitro experimental results generated in accordance with respective embodiments of the present invention. A number of 300 g Wistar rats were anaesthetized using Ketamine (100 mg/kg) and Xylazine (10 mg/kg). Two 3 cm-long sections 510 of the intestine were removed from each rat and opened along the mesenterial line so that two rectangular pieces of tissue were available from each rat (a single tissue section 510 is shown in FIG. 26). For the experiments described hereinbelow with reference to FIGS. 27-35, the intestinal sections were taken from the upper jejunum, while for the experiment described hereinbelow with reference to FIG. 36, the intestinal sections were taken from the upper jejunum, proximal ileum, and distal ileum. The serosal and muscular layers of the intestinal sections were removed using a microscope cover glass. Each of the intestinal tissue segments was placed on a slide and inserted into diffusion chamber 500.
Diffusion chamber 500 is shaped so as to define a donor cell 520 and an acceptor cell 522, connected by a 28 mm×8 mm window 524. Tissue segment 510 on the slide completely covered window 524. Tissue segment 510 was placed so as to completely cover window 524, thereby separating donor cell 520 and acceptor cell 522. Tissue segment 510 was oriented such that the mucosal side thereof faced donor cell 520, and the serosal side thereof faced acceptor cell 522. Donor cell 520 was filled with 15 ml of Hank's Balanced Salt Solution (HBSS) adjusted to a pH of 7.4 (in mM: 136.9 NaCl, 5.4 KCl, 0.5 MgCl2, 0.4 MgSO4, 4.5 KH2PO4, 0.35 Na2HPO4, 1.0 CaCl2, 4.2 NaHCO3, 5.5 D-Glucose). Acceptor cell 522 was filled with D-Glucose-supplemented Phosphate Buffered Saline (PBS) adjusted to a pH of 7.4 (in mM: 136.9 NaCl, 2.7 KCl, 0.5 MgCl2, 1.5 KH2PO4, 8.1 Na2HPO4, 0.7 CaCl2, 5.5 D-Glucose).
After tissue segment 510 was placed over window 524, the donor cell was divided into two separate compartments 526a and 526b by an electrically-insulating divider 528 positioned to slightly touch tissue segment 510 so that fluid passage between compartments 526a and 526b was slow (if not impossible). (Donor cell 520 was not divided into compartments 526a and 526b in the experiment described hereinbelow with reference to FIG. 33.) The solution was maintained at 37° C. and gassed with 95% O2/5% CO2, supplied via 1 mm ID tubes placed at the bottom of each cell (tubes not shown in FIG. 26).
A single square electrode 530 was placed in each of compartments 526a and 526b of donor cell 520, such that an electrode surface 532 of each electrode was parallel to the surface of tissue segment 510, at a 0.5 mm distance from tissue segment 510 (except for the experiment described hereinbelow with reference to FIG. 32). Electrodes 530 comprised stainless steel (SS316L, 6 mm×6 min) (except for the experiment described hereinbelow with reference to FIG. 34). The distance between the centers of electrode surfaces 532 was 10 mm. After tissue segment 510 was in position over window 524 for 30 minutes, the HBSS in donor cell 520 was replaced with 1 mg/ml octreotide acetate (Sandostatin) containing HBSS.
In each of the experiments described hereinbelow with reference to FIGS. 27-36, beginning upon replacement of the HBSS in donor cell 520 with octreotide, a train of LITV pulses was applied through electrodes 530, and the permeation of octreotide from donor cell 520 to acceptor cell 522 via tissue segment 510 was measured. This train of monophasic rectangular pulses was generated using a Thurlby Thandar Instruments TGP110 pulse generator. The voltage output of the pulse generator was adjusted so that a 3 mA current flowed through the electrodes. An EZ Digital Co. DM330 Digital Multimeter, connected serially to the electrodes, was used to measure current. […]

[2] = test system: upper jejunum tissue segments; assay: Octreotide permeation via rat upper jejunum tissue segment in diffusion chamber, with or without LITV pulses (FIG. 24); assay type: in vitro ADME, Wistar rat; settings: LITV pulses 12 Hz, 1 millisecond, 3 mA vs control without stimulation; 1 mg/ml octreotide acetate, 90-minute period
Experimental: Reference is now made to FIG. 24, which is a graph showing in vitro experimental results measured in accordance with an embodiment of the present invention. A 300 g Wistar rat was anaesthetized using Ketamine (100 mg/kg) and Xylazine (10 mg/kg). Two 3 cm-long sections of the upper jejunum were removed and opened along the lumen so that two rectangular pieces of tissue were available. The serosal and muscular layers were removed using a microscope cover glass. The intestinal tissue segments were placed on slides and inserted into diffusion chambers similar to experimental diffusion chamber 500, described hereinbelow with reference to FIG. 26. […] The tissue segments on the slides completely covered the windows between the donor and acceptor cells. The cells were filled with 15 ml of Hank's Balanced Salt Solution (HBSS) (pH 7.4). The donor cells were then divided into two separate sections with a dividing board slightly touching the tissue so that fluid passage between the two parts of each donor cell was slow (if not impossible). […]
In one of the diffusion chambers (which served as a control), permeation of octreotide via the tissue segment was measured without the application of electrical stimulation. […] The samples were analyzed by HPLC-UV 205 nm spectroscopy (Hewlett-Packard 1100, acetonitril: phosphate buffer (pH 7.4) (40:60), C18 column) for their content of octreotide.

proximal ileum tissue = assay: Octreotide permeation via proximal ileum tissue in diffusion chamber 500 with LITV pulses (FIG. 36); assay type: in vitro ADME, Wistar rat; settings: 18 Hz, 3 mA, 1 millisecond vs control, at 7 minutes (FIG. 36)
Experimental: as §1, §2

rat intestine = settings: all regions of the rat intestine; cited from earlier work
[3] = test system: electrically-induced NO synthesis and release; settings: NO synthase inhibitor added; cited from earlier work
mouse ileum = settings: addition of NO donors to mouse ileum; cited from earlier work

SMILES: COC(=O)[C@@H](N)CCCNC(=N)N[N+](=O)[O-] [L-NAME, N^G-Nitro-L-Arginine methyl ester]
- proabsorptive effect of NO [1]: significantly reduced
- effect of NOS inhibition on peptide permeation vs non-NOS-inhibited groups (rat jejunum; 1 mM L-NAME, with and without stimulation): substantially less

SMILES: C[C@@H](O)[C@@H]1NC(=O)[C@H](CCCCN)NC(=O)[C@@H](Cc2c[nH]c3ccccc23)NC(=O)[C@H](Cc2ccccc2)NC(=O)[C@@H](NC(=O)[C@H](N)Cc2ccccc2)CSSC[C@@H](C(=O)N[C@H](CO)[C@@H](C)O)NC1=O [octreotide, octreotide acetate]
- permeation efficiency in different regions of the intestine (distal ileum tissue): positive but less pronounced effect
- magnitude of permeation efficiency, effect of electrode distance from jejunal tissue (jejunal tissue; 0.5 mm vs 3 mm, 18 Hz, 3 mA, 1 millisecond, at 15 minutes (FIG. 32)): greater at 0.5 mm than at 3 mm
- permeation efficiency, effect of pulse cycle (jejunal tissue; 1 pulse per cycle, 18 Hz, 3 mA): greatest permeation efficiency
- enhancement ratio, effect of pulse frequency (jejunal tissue; 18 Hz among 5-60 Hz tested, 1 millisecond, 3 mA, at 30 minutes (FIG. 28)): greatest enhancement ratio
- permeation efficiency, effect of cessation of pulse application (jejunal tissue; continuous application vs cessation after 10 minutes, 18 Hz, 3 mA, 1 millisecond (FIG. 35)): substantially greater permeation efficiency
- permeation efficiency, effect of electrode insulation (jejunal tissue; electrodes not insulated from each other (without divider 528), 18 Hz, 3 mA, 1 millisecond (FIG. 33)): did not increase permeation efficiency
- permeation efficiency, effect of pulse cycle (jejunal tissue; increasing number of pulses per cycle (2, 3), 18 Hz, 3 mA): the permeation efficiency decreased
- permeation efficiency in different regions of the intestine (jejunal tissue; jejunal tissue, 18 Hz, 3 mA, 1 millisecond vs control, at 7 minutes (FIG. 36)): greatest effect of pulse application
- enhancement ratio, effect of pulse duration (jejunal tissue; pulse duration 1 millisecond among 0.2-3 milliseconds tested, 18 Hz, 3 mA, at 15 minutes (FIG. 30)): greatest enhancement ratio
- octreotide permeation (permeation efficiency) (jejunal tissue; pulses 1 millisecond, 18 Hz, 3 mA vs non-stimulated control group (FIG. 27)): substantially enhanced octreotide permeation
- octreotide permeation vs control group (jejunal tissue; pulses at 5 Hz, 1 millisecond): did not yield a higher octreotide permeation
- octreotide permeation vs control group (jejunal tissue; pulses at 60 Hz, 1 millisecond): did not yield a higher octreotide permeation
- permeation efficiency, effect of electrode material (jejunal tissue; silver chloride electrodes, 18 Hz, 3 mA): did not increase permeation efficiency
- permeation efficiency, effect of electrode material (jejunal tissue; stainless steel (SS316L) electrodes, 18 Hz, 3 mA): substantially increased permeation efficiency
- permeation efficiency, effect of electrode material (jejunal tissue; titanium nitride electrodes, 18 Hz, 3 mA): did not increase permeation efficiency
- octreotide permeation into acceptor cell [2]: substantially greater increase in octreotide permeation
- permeation efficiency in different regions of the intestine (proximal ileum tissue): increased permeation efficiency
- permeation of the peptides (rat jejunum; NOS-inhibited (1 mM L-NAME) non-stimulation group, after 45 minutes): about 0.45 ug/ml
- permeation of the peptides (rat jejunum; NOS-inhibited (1 mM L-NAME) stimulation group (18 Hz, 1 ms, 5 mA), after 45 minutes): about 0.45 ug/ml
- permeation of the peptides (rat jejunum; non-NOS-inhibited electrical stimulation group (18 Hz, 1 ms, 5 mA), after 45 minutes): about 1.45 ug/ml
- penetration of the peptides (rat jejunum; non-stimulation, non-NOS-inhibited control group, after 45 minutes): about 0.6 ug/ml

SMILES: CC(C)N(CCCN)/[N+]([O-])=N/O [NOC5]
- absorption of macromolecules (rat intestine): improve absorption of macromolecules

SMILES: CNCCCN(C)/[N+]([O-])=N/O [NOC7]
- absorption of macromolecules (rat intestine): improve absorption of macromolecules

SMILES: N=C(NCCC[C@H](N)C(=O)O)N[N+](=O)[O-] [L-NNA, N^G-nitro-L-arginine]
- electrically-induced NO synthesis and release [3]: almost entirely prevented
- proabsorptive effect of NO [1]: significantly reduced

SMILES: CCNC(=O)[C@@H]1CCCN1C(=O)[C@H](CCCNC(=N)N)NC(=O)[C@H](CC(C)C)NC(=O)[C@@H](CC(C)C)NC(=O)[C@H](Cc1ccc(O)cc1)NC(=O)[C@H](CO)NC(=O)[C@H](Cc1c[nH]c2ccccc12)NC(=O)[C@H](Cc1c[nH]cn1)NC(=O)[C@@H]1CCC(=O)N1 [Leuprolide]
- penetration of the peptides (rat jejunum): about 0.6 ug/ml

SMILES: CCNCCN(CC)/[N+]([O-])=N/O [NOC12]
- absorption of macromolecules (rat intestine): improve absorption of macromolecules

SMILES: CC(=O)N[C@H](C(=O)O)C(C)(C)SN=O [SNAP, S-nitroso-acetyl-penicillamine]
- transepithelial electrical resistance (mouse ileum): decrease in transepithelial electrical resistance

SMILES: CNC(=N)NCCC[C@H](N)C(=O)O [L-NMA, N^G-methyl-L-arginine]
- proabsorptive effect of NO [1]: significantly reduced
